Measurements reported in US20230047788A1, “COMPOSITIONS COMPRISING 5-CHOLESTEN-3, 25-DIOL, 3-SULFATE (25HC3S) OR PHARMACEUTICALLY ACCEPTABLE SALT THEREOF AND AT LEAST ONE CYCLIC OLIGOSACCHARIDE” (Virginia Commonwealth University, priority 2016, published 2023).
Several values for one entry are separate records, joined by “and”; a condition that tells them apart may be missing. Equal values may be shown once.

Experiment: Infusion compatibility of constituted 25HC3S solution with 5% dextrose, 0.9% sodium chloride and two infusion sets
Assay type: physicochemical
Conditions: for % Remaining after infusion set / Concentration after infusion set / Osmolality after infusion set / pH after infusion set: 0.9% NaCl
Method: After constitution with Vehicle, the 30 mg/mL 25HC3S product was diluted into 100 mL of 5% dextrose injection, USP or 0.9% sodium chloride injection, USP, and was administered to subjects as an IV infusion ranging from a 30 mg to 150 mg 25HC3S dose. This was accomplished by adding 1.0 mL (for the 30 mg dose) or 5.0 mL (for the 150 mg dose), or any volume in between, of the 30 mg/mL 25HC3S product into a 100 mL dextrose or sodium chloride infusion bag. The entire admixture content in the infusion bag was infused into the subject over approximately 2 hours at a rate of 50 mL/hour.
A physical and chemical compatibility study was conducted at a 30 mg, 48 mg and 300 mg 25HC3S dose in 5% dextrose and 0.9% sodium chloride infusion bags. Descriptions of the two kinds of infusion sets tested with 25HC3S product diluted in 5% dextrose and 0.9% sodium chloride are listed in Table 15. The tubing in catalog number 2H8480 infusion set was composed of polyvinylchloride (PVC), while the tubing in catalog number 2C8858 was polyethylene lined except for a short pump segment (approximately 12 inches) which was composed of PVC.
25HC3S for Injection and Vehicle for 25HC3S for Injection, that had been stored at 2-8° C. for approximately 16 months, were used for the compatibility study. After constitution, 30 mg (1.0 mL of constituted product), 48 mg (1.6 mL of constituted product) or 300 mg (10 mL of constituted product) were added to 100 mL infusion bags of 5% dextrose and 0.9% sodium chloride, mixed thoroughly, and stored for 24 hours at room temperature and at 2-8° C. […] Taking into consideration the overfill per infusion bag and the additional volume introduced by adding the constituted 25HC3S product to each bag, the expected concentrations of 25HC3S were 0.28 mg/mL, 0.44 mg/mL, and 2.56 mg/mL in the infusion bags. Two kinds of infusion sets were then attached to the drug containing infusion bags, and the entire contents were eluted through the infusion sets at approximately 50 mL/hour at room temperature. Samples were collected from the 25HC3S prepared infusion bags at T=0 and at 24 hours, and from the total eluent passed through the infusion sets, and tested for 25HC3S concentration using HPLC. Solution visual appearance, osmolality (using method USP<785>), and pH (using method USP<791>) were also measured on the collected samples.

[1] = ~0.28 mg/mL, 24 h 2-8°C then Baxter 2C8858
[2] = ~0.28 mg/mL, 24 h 2-8°C then Baxter 2H8480
[3] = ~0.28 mg/mL, 24 h RT then Baxter 2C8858
[4] = ~0.28 mg/mL, 24 h RT then Baxter 2H8480
[5] = ~0.44 mg/mL, 24 h 2-8°C then Baxter 2C8858
[6] = ~0.44 mg/mL, 24 h 2-8°C then Baxter 2H8480
[7] = ~0.44 mg/mL, 24 h RT then Baxter 2C8858
[8] = ~0.44 mg/mL, 24 h RT then Baxter 2H8480
[9] = ~2.56 mg/mL, 24 h 2-8°C then Baxter 2C8858
[10] = ~2.56 mg/mL, 24 h 2-8°C then Baxter 2H8480
[11] = ~2.56 mg/mL, 24 h RT then Baxter 2C8858
[12] = ~2.56 mg/mL, 24 h RT then Baxter 2H8480
[13] = 0.9% sodium chloride bag, ~0.28 mg/mL, 24 Hours at 2-8°C
[14] = 0.9% sodium chloride bag, ~0.28 mg/mL, 24 Hours at RT
[15] = 0.9% sodium chloride bag, ~0.28 mg/mL, T = 0
[16] = 0.9% sodium chloride bag, ~0.44 mg/mL, 24 Hours at 2-8°C
[17] = 0.9% sodium chloride bag, ~0.44 mg/mL, 24 Hours at RT
[18] = 0.9% sodium chloride bag, ~0.44 mg/mL, T = 0
[19] = 0.9% sodium chloride bag, ~2.56 mg/mL, 24 Hours at 2-8°C
[20] = 0.9% sodium chloride bag, ~2.56 mg/mL, 24 Hours at RT
[21] = 0.9% sodium chloride bag, ~2.56 mg/mL, T = 0

For `C[C@H](CCCC(C)(C)O)[C@H]1CC[C@H]2[C@@H]3CC=C4C[C@@H](OS(=O)(=O)[O-])CC[C@]4(C)[C@H]3CC[C@]12C.[Na+]` [25HC3S, 5-cholesten-3, 25-diol, 3-sulfate], the “% Remaining after infusion set” value [1] was “(100.0%)”, the “Concentration after infusion set” value [1] was 275 µg/mL and the “Osmolality after infusion set” value [1] was 276 mmol/kg. For the same compound, the “pH after infusion set” value [1] was 5.78, the “% Remaining after infusion set” value [2] was “(100.4%)” and the “Concentration after infusion set” value [2] was 275 µg/mL. For the same compound, the “Osmolality after infusion set” value [2] was 277 mmol/kg, the “pH after infusion set” value [2] was 5.81 and the “% Remaining after infusion set” value [3] was “(100.0%)”. The “Concentration after infusion set” value [3] was 274 µg/mL, the “Osmolality after infusion set” value [3] was 276 mmol/kg and the “pH after infusion set” value [3] was 5.83. The “% Remaining after infusion set” value [4] was “(99.6%)”, the “Concentration after infusion set” value [4] was 272 µg/mL and the “Osmolality after infusion set” value [4] was 276 mmol/kg. For the same compound, the “pH after infusion set” value [4] was 5.78, the “% Remaining after infusion set” value [5] was “(100.2%)” and the “Concentration after infusion set” value [5] was 426 µg/mL. For the same compound, the “Osmolality after infusion set” value [5] was 281 mmol/kg, the “pH after infusion set” value [5] was 7.16 and the “% Remaining after infusion set” value [6] was “(100.0%)”. For the same compound, the “Concentration after infusion set” value [6] was 434 µg/mL, the “Osmolality after infusion set” value [6] was 282 mmol/kg and the “pH after infusion set” value [6] was 7.13. For the same compound, the “% Remaining after infusion set” value [7] was “(100.0%)”, the “Concentration after infusion set” value [7] was 424 µg/mL and the “Osmolality after infusion set” value [7] was 288 mmol/kg. The “pH after infusion set” value [7] was 7.20, the “% Remaining after infusion set” value [8] was “(99.8%)” and the “Concentration after infusion set” value [8] was 433 µg/mL. For the same compound, the “Osmolality after infusion set” value [8] was 286 mmol/kg, the “pH after infusion set” value [8] was 7.09 and the “% Remaining after infusion set” value [9] was “(99.8%)”. For the same compound, the “Concentration after infusion set” value [9] was 2520 µg/mL, the “Osmolality after infusion set” value [9] was 283 mmol/kg and the “pH after infusion set” value [9] was 5.70. The “% Remaining after infusion set” value [10] was “(100.0%)”, the “Concentration after infusion set” value [10] was 2530 µg/mL and the “Osmolality after infusion set” value [10] was 283 mmol/kg. For the same compound, the “pH after infusion set” value [10] was 5.72, the “% Remaining after infusion set” value [11] was “(99.6%)” and the “Concentration after infusion set” value [11] was 2520 µg/mL. For the same compound, the “Osmolality after infusion set” value [11] was 279 mmol/kg, the “pH after infusion set” value [11] was 5.83 and the “% Remaining after infusion set” value [12] was “(100.4%)”. The “Concentration after infusion set” value [12] was 2460 µg/mL, the “Osmolality after infusion set” value [12] was 283 mmol/kg and the “pH after infusion set” value [12] was 5.81. The Concentration [13] was 275 µg/mL, the Osmolality [13] was 276 mmol/kg and the pH [13] was 5.87 and 5.99. For the same compound, the Concentration [14] was 272 µg/mL and 274 µg/mL, the Osmolality [14] was 275 mmol/kg and 277 mmol/kg and the pH [14] was 5.93 and 5.92. For the same compound, the Osmolality [15] was 278 mmol/kg and 277 mmol/kg, the “T = 0 Conc.” value [15] was 0.273 mg/mL and 0.274 mg/mL and 0.275 mg/mL and the pH [15] was 6.39 and 6.43 and 6.45 and 6.40. For the same compound, the “% Remaining Compared to T = 0” value [16] was “(100.0%)”, the Concentration [16] was 434 µg/mL and 425 µg/mL and the Osmolality [16] was 281 mmol/kg. The pH [16] was 7.43 and 7.19, the “% Remaining Compared to T = 0” value [17] was “(100.0%)” and the Concentration [17] was 434 µg/mL and 424 µg/mL. The Osmolality [17] was 280 mmol/kg, the pH [17] was 7.33 and 7.41 and the Osmolality [18] was 277 mmol/kg and 279 mmol/kg and 284 mmol/kg and 280 mmol/kg. The “T = 0 Conc.” value [18] was 0.434 mg/mL and 0.424 mg/mL and 0.425 mg/mL, the pH [18] was 7.30 and 7.43 and 7.21 and 7.44 and the Concentration [19] was 2510 µg/mL and 2520 µg/mL. For the same compound, the Osmolality [19] was 283 mmol/kg, the pH [19] was 5.93 and 5.96 and the Concentration [20] was 2500 µg/mL and 2525 µg/mL. The Osmolality [20] was 282 mmol/kg, the pH [20] was 6.01 and 5.86 and the Osmolality [21] was 282 mmol/kg and 281 mmol/kg. For the same compound, the “T = 0 Conc.” value [21] was 2.450 mg/mL and 2.530 mg/mL and 2.525 mg/mL, the pH [21] was 6.20 and 6.10 and 6.07 and 6.11 and the “deviation of concentrations from initial T=0 time point” value (0.9% sodium chloride, 24 hours at RT and 2-8°C and after elution through infusion sets) was at most 2.0%. For the same compound, the Concentration (5% dextrose bag, ~0.28 mg/mL, 24 Hours at 2-8°C) was 280 µg/mL.
